From US20250197387A1, “BCL-XL DEGRADERS AND USES THEREOF” (Kymera Therapeutics, Inc., priority 2021, published 2025)

Target: T1, BCL-XL (Homo sapiens, UniProt Q07817)
T1 construct: endogenous in cells; host or cells: MOLT-4
Experiment: BCL-XL degradation assay, western blot in MOLT-4 cells, 16 h
Type: cell-based
Conditions: western blot, MOLT-4 cells, 16 h; for Dmax: read-out: Bcl-xL WB in MOLT-4 degradation 16 h: Average Dmax %; for DC50: read-out: Bcl-xL WB in MOLT-4 degradation 16 h: Mean external-Abs DC50
Method: Compounds treatment: compounds were reconstituted in DMSO to make a stock concentration of 10 mM. MOLT-4 cells were maintained in RPMI-1640+10% FBS+1% Penicillin-Streptomycin. Cells were seeded into 6-well plates in 2 mL at the seeding density of 2e6 cells/mL. Compounds were added to the cells to a final concentration ranging 0.02-10 μM. After 16 hr incubation at 37° C., in a CO2 incubator, cells were collected in an Eppendorf tube and centrifuged at 200×g for 5 minutes, the supernatant removed and pellets washed with ice-cold PBS, centrifuged and supernatant removed again. Then. 50 μl of pre-chilled RIPA lysis buffer (Boston BioProducts. BP-115D) with protease and phosphatase inhibitors (Roche Applied Science. #04906837001 and #04693116001) was added into cell pellet to lyze the cells for 20 minutes under 4° C. Cell lysates were spin at 13000 rpm for 10 minutes. Supernatants were collected and protein concentration was measured by BCA assay kit (Solarbio. PC0020-500) following the manufacturer's protocol. Samples' final protein concentration was adjusted to 3.75 μg/uL with the RIPA lysis buffer based on BCA assay results and 4× loading buffer (Invitrogen. NP0007) was added into the samples and samples were heated to 85° C., for 10 min and then let cool at RT. Samples were centrifuged at 13000 rpm for 10 min and then loaded into a 26-well NuPAGER. Novex 4-12% Bis-Tris Midi Gel (Invitrogen. WG1403BOX) and run in NuPAGER MOPS SDS Running Buffer (Invitrogen. NP0001) for 180 minutes at 70 V into a XCell4 SureLock™ Midi-Cell Runner (Invitrogen. WR0100). Gel were transferred using the Invitrogen iBlot gel transfer device (Invitrogen. IB21001) and the nitrocellulose transfer stacks (Invitrogen, IB23001) with Program PO for 9 minutes. The membrane was then blocked with 5% bovin serum albumin for 1 hr at RT, then incubated with primary antibodies diluted in blocking buffer (LI-COR. 927-60001) and shake at 4° C., overnight. The primary antibodies were anti-BCL-xL antibody (CST. 2762:1:1000), anti-beta-actin (CST. 3700; 1:5000) and anti-GAPDH (CST. 97166:1:5000). Membranes were then washed three times with PBST for 15 minutes at RT. Secondary antibodies IR-Dye 680 CW Goat anti Mouse IgG (LI-COR. 926-68070) and IR-Dye 800 CW Goat anti Rabbit IgG (LI-COR. 926-32211) were diluted at a ratio of 1:10000 into PBST and membranes incubated for 1 hour at RT. Membranes were then washed three times with PBST for 15 minutes at RT. The western blot images were obtained using Odyssey Imaging System and quantified using Image Studio Lite Ver 5.2 software.
The letter codes for BCL-XL DC50 include: A (<0.01 μM); B (0.01-0.1 μM); C (>[…]); D (>0.5-1.0 μM); and E (>1.0 μM). The letter codes for Dmax % include A (>75%); B (50 to 75%); C (<50%).

T1 sequence (Q07817 whole entry): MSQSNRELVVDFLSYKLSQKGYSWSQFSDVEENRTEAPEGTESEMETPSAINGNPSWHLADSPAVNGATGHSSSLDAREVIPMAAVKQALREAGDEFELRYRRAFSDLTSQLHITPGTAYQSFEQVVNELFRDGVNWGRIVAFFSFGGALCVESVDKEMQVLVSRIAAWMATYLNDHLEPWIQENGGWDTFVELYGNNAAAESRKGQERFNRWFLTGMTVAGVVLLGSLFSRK

CC1(C)CCC(c2ccc(Cl)cc2)=C(CN2CCN(c3ccc(C(=O)NS(=O)(=O)c4ccc(N[C@H](CCN5CCN(C(=O)COc6ccccc6CNC(=O)[C@@H]6C[C@@H](O)CN6C(=O)[C@@H](NC(=O)C6(F)CC6)C(C)(C)C)CC5)CSc5ccccc5)c(S(=O)(=O)C(F)(F)F)c4)cc3)CC2)C1 [I-97]
Dmax: < 50% | DC50: > 1000 nM

Cc1ncsc1-c1ccc([C@H](C)NC(=O)[C@@H]2C[C@@H](O)CN2C(=O)[C@@H](NC(=O)CCCCCS(=O)(=O)NC(=O)c2nc(N3CCc4cccc(C(=O)Nc5nc6ccccc6s5)c4C3)sc2CCCOc2ccc(C#CCN(C)C)cc2F)C(C)(C)C)cc1 [I-26]
Dmax: > 75% | DC50: < 10 nM

Cc1ncsc1-c1ccc(CNC(=O)[C@@H]2C[C@@H](O)CN2C(=O)[C@@H](NC(=O)C2(F)CC2)C(C)(C)C)c(OCCCC(=O)N(C)CC#Cc2cccc(F)c2OCCCc2sc(N3CCc4cccc(C(=O)Nc5nc6ccccc6s5)c4C3)nc2C(=O)O)c1 [I-18]
Dmax: 50 to 75% | DC50: > 1000 nM

Cc1ncsc1-c1ccc([C@H](C)NC(=O)[C@@H]2C[C@@H](O)CN2C(=O)[C@@H](NC(=O)CCCCCC(=O)N(C)CCCc2cccc(F)c2OCCCc2sc(N3CCc4cccc(C(=O)Nc5nc6ccccc6s5)c4C3)nc2C(=O)O)C(C)(C)C)cc1 [I-10]
Dmax: > 75% | DC50: 100 to 500 nM

Cc1ncsc1-c1ccc(CNC(=O)[C@@H]2C[C@@H](O)CN2C(=O)[C@@H](NC(=O)C2(F)CC2)C(C)(C)C)c(OCCCCCCCC(=O)N(C)CC#Cc2cccc(F)c2OCCCc2sc(N3CCc4cccc(C(=O)Nc5nc6ccccc6s5)c4C3)nc2C(=O)O)c1 [I-20]
Dmax: > 75% | DC50: 100 to 500 nM

Cc1ncsc1-c1ccc([C@H](C)NC(=O)[C@@H]2C[C@@H](O)CN2C(=O)[C@@H](NC(=O)CCCCCCCS(=O)(=O)NC(=O)c2ccc(N3CCN(CC4=C(c5ccc(Cl)cc5)CCC(C)(C)C4)CC3)cc2)C(C)(C)C)cc1 [I-107]
Dmax: 50 to 75% | DC50: > 1000 nM

CC1(C)CCC(c2ccc(Cl)cc2)=C(CN2CCN(c3ccc(C(=O)NS(=O)(=O)c4ccc(N[C@H](CCN5CCN(C(=O)COc6cc(F)ccc6CNC(=O)[C@@H]6C[C@@H](O)CN6C(=O)[C@@H](NC(=O)C6(F)CC6)C(C)(C)C)CC5)CSc5ccccc5)c(S(=O)(=O)C(F)(F)F)c4)cc3)CC2)C1 [I-98]
Dmax: < 50% | DC50: > 1000 nM

Cc1ncsc1-c1ccc([C@H](C)NC(=O)[C@@H]2C[C@@H](O)CN2C(=O)[C@@H](NC(=O)CCCCCC(=O)N2CCN(CCCC3(Cn4ncc(-c5ccc(N6CCc7cccc(C(=O)Nc8nc9ccccc9s8)c7C6)nc5C(=O)O)c4C)CCCCC3)CC2)C(C)(C)C)cc1 [I-131]
Dmax: 50 to 75% | DC50: 100 to 500 nM

Cc1ncsc1-c1ccc(CNC(=O)[C@@H]2C[C@@H](O)CN2C(=O)[C@@H](NC(=O)C2(F)CC2)C(C)(C)C)c(OCCCC(=O)N(C)CCCc2cccc(F)c2OCCCc2sc(N3CCc4cccc(C(=O)Nc5nc6ccccc6s5)c4C3)nc2C(=O)O)c1 [I-12]
Dmax: 50 to 75% | DC50: 500 to 1000 nM

Cc1ncsc1-c1ccc([C@H](C)NC(=O)[C@@H]2C[C@@H](O)CN2C(=O)[C@@H](NC(=O)CCCCCS(=O)(=O)NC(=O)c2ccc(N3CCN(CC4=C(c5ccc(Cl)cc5)CCC(C)(C)C4)CC3)cc2)C(C)(C)C)cc1 [I-106]
Dmax: < 50% | DC50: > 1000 nM

Cc1ncsc1-c1ccc([C@H](C)NC(=O)[C@@H]2C[C@@H](O)CN2C(=O)[C@@H](NC(=O)CCCC(=O)N2CCN(CCCC3(Cn4ncc(-c5ccc(N6CCc7cccc(C(=O)Nc8nc9ccccc9s8)c7C6)nc5C(=O)O)c4C)CCCCC3)CC2)C(C)(C)C)cc1 [I-130]
Dmax: 50 to 75% | DC50: 100 to 500 nM

Cc1ncsc1-c1ccc([C@H](C)NC(=O)[C@@H]2C[C@@H](O)CN2C(=O)[C@@H](NC(=O)CCc2ccc(S(=O)(=O)NC(=O)c3ccc(N4CCN(CC5=C(c6ccc(Cl)cc6)CCC(C)(C)C5)CC4)cc3)cc2)C(C)(C)C)cc1 [I-124]
Dmax: < 50% | DC50: > 1000 nM

Cc1ncsc1-c1ccc([C@H](C)NC(=O)[C@@H]2C[C@@H](O)CN2C(=O)[C@@H](NC(=O)CCc2ccc(N3CCc4cccc(C(=O)Nc5nc6ccccc6s5)c4C3)nc2C(=O)O)C(C)(C)C)cc1 [I-40]
Dmax: < 50% | DC50: > 1000 nM

C#Cc1ccc([C@H](C)NC(=O)[C@@H]2C[C@@H](O)CN2C(=O)[C@@H](NC(=O)N2CCC3(CCC(C(=O)N4CCN(CC[C@H](CSc5ccccc5)Nc5ccc(S(=O)(=O)NC(=O)c6ccc(N7CCN(CC8=C(c9ccc(Cl)cc9)CCC(C)(C)C8)CC7)cc6)cc5S(=O)(=O)C(F)(F)F)CC4)CC3)CC2)C(C)(C)C)cc1 [I-127]
Dmax: < 50% | DC50: > 1000 nM

Cc1ncsc1-c1ccc([C@H](C)NC(=O)[C@@H]2C[C@@H](O)CN2C(=O)[C@@H](NC(=O)CCCCCCCCC(=O)N2CCN(CC[C@H](CSc3ccccc3)Nc3ccc(S(=O)(=O)NC(=O)c4ccc(N5CCN(CC6=C(c7ccc(Cl)cc7)CCC(C)(C)C6)CC5)cc4)cc3S(=O)(=O)C(F)(F)F)CC2)C(C)(C)C)cc1 [I-1, (2S,4R)-1-((S)-2-(10-(4-((R)-3-((4-(N-(4-(4-((4′-chloro-4,4-dimethyl-3,4,5,6-tetrahydro-[1,1′-biphenyl]-2-yl)methyl)piperazin-1-yl)benzoyl)sulfamoyl)-2-((trifluoromethyl)sulfonyl)phenyl)amino)-4-(phenylthio)butyl)piperazin-1-yl)-10-oxodecanamido)-3,3-dimethylbutanoyl)-4-hydroxy-N-((S)-1-(4-(4-methylthiazol-5-yl)phenyl)ethyl)pyrrolidine-2-carboxamide]
Dmax: > 75% | DC50: 100 to 500 nM

Cc1cc(N(CCN(C)C(=O)CCCCCCCCOc2cc(-c3scnc3C)ccc2CNC(=O)[C@@H]2C[C@@H](O)CN2C(=O)[C@@H](NC(=O)C2(F)CC2)C(C)(C)C)c2ccc(-c3cnn(CC4CCCCC4)c3C)c(C(=O)O)n2)nnc1Nc1nc2ccccc2s1 [I-104]
Dmax: < 50% | DC50: > 1000 nM

Cc1ncsc1-c1ccc(CNC(=O)[C@@H]2C[C@@H](O)CN2C(=O)C(c2cc(OCCCCCCCCC(=O)N(C)CC#Cc3ccc(OCCCc4sc(N5CCc6cccc(C(=O)Nc7nc8ccccc8s7)c6C5)nc4C(=O)O)c(F)c3)no2)C(C)C)cc1 (stereo partly shown) [I-88]
Dmax: > 75% | DC50: 10 to 100 nM

Cc1ncsc1-c1ccc([C@H](C)NC(=O)[C@@H]2C[C@@H](O)CN2C(=O)[C@@H](NC(=O)CCCS(=O)(=O)NC(=O)c2nc(N3CCc4cccc(C(=O)Nc5nc6ccccc6s5)c4C3)ccc2-c2cnn(CC34CC5CC(CC(C5)C3)C4)c2C)C(C)(C)C)cc1 [I-117]
Dmax: > 75% | DC50: < 10 nM

Cc1cc(N(CCCC(=O)N[C@H](C(=O)N2C[C@H](O)C[C@H]2C(=O)N[C@@H](C)c2ccc(-c3scnc3C)cc2)C(C)(C)C)c2ccc(-c3cnn(CC4CCCCC4)c3C)c(C(=O)O)n2)nnc1Nc1nc2ccccc2s1 [I-113]
Dmax: < 50% | DC50: > 1000 nM

Cc1ncsc1-c1ccc(CNC(=O)[C@@H]2C[C@@H](O)CN2C(=O)C(c2cc(OCCCCCC(=O)N(C)CC#Cc3ccc(OCCCc4sc(N5CCc6cccc(C(=O)Nc7nc8ccccc8s7)c6C5)nc4C(=O)O)c(F)c3)no2)C(C)C)cc1 (stereo partly shown) [I-87]
Dmax: > 75% | DC50: 10 to 100 nM

Cc1ncsc1-c1ccc(CNC(=O)[C@@H]2C[C@@H](O)CN2C(=O)[C@@H](NC(=O)C2(F)CC2)C(C)(C)C)c(OCCCC(=O)N(C)CC#Cc2ccc(OCCCc3sc(N4CCc5cccc(C(=O)Nc6nc7ccccc7s6)c5C4)nc3C(=O)O)c(F)c2)c1 [I-6]
Dmax: > 75% | DC50: 100 to 500 nM

Cc1ncsc1-c1ccc([C@H](C)NC(=O)[C@@H]2C[C@@H](O)CN2C(=O)[C@@H](NC(=O)CCCC(=O)N(C)CCCc2cccc(F)c2OCCCc2sc(N3CCc4cccc(C(=O)Nc5nc6ccccc6s5)c4C3)nc2C(=O)O)C(C)(C)C)cc1 [I-9]
Dmax: > 75% | DC50: 100 to 500 nM

Cc1ncsc1-c1ccc([C@H](C)NC(=O)[C@@H]2C[C@@H](O)CN2C(=O)[C@@H](NC(=O)N2CCC3(CCC(C(=O)N4CCN(CC[C@H](CSc5ccccc5)Nc5ccc(S(=O)(=O)NC(=O)c6ccc(N7CCN(CC8=C(c9ccc(Cl)cc9)CCC(C)(C)C8)CC7)cc6)cc5S(=O)(=O)C(F)(F)F)CC4)CC3)CC2)C(C)(C)C)cc1 [I-126]
Dmax: < 50% | DC50: > 1000 nM
